# Where “and” joins values, the source holds several entries; their conditions need not be identical. Equal entries are not always repeated. Where two headings read alike, the source gives them in different places.
# Tests used:
# Assay type in all cases: cell-based
# SK-MEL-28 = assay: NCI 60 antitumor screening (single dose / five doses); settings: Homo sapiens
# T-47D = assay: as above; settings: Homo sapiens, T47D; for inhibition at 10 µM: read-out: Growth inhibition percentage (GI %)
# SR = assay: as above; settings: Homo sapiens; for inhibition at 10 µM: read-out: Growth inhibition percentage (GI %)
# [1] = tested on: 60 human subpanel cancer cell lines; assay: NCI 60 antitumor screening, mean over the panel (single dose); settings: mean over 60 cancer cell lines, single dose 10 μM
# Procedure, shortened: (§1)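 Compounds were tested at a single 10 μM dose against the NCI 60-cell-line panel (nine tumour types), in triplicate. Growth was recorded as percent growth (G%) of treated cells, and growth inhibition was taken as GI% = 100 − G%.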
# MDA-MB-435 = assay: NCI 60 antitumor screening (single dose / five doses); settings: Homo sapiens
# SK-MEL-2 = assay: as above; settings: Homo sapiens
# DU-145 = assay: as above; settings: Homo sapiens
# OVCAR-3 = assay: NCI 60 antitumor screening (single dose); settings: Homo sapiens
# Procedure, shortened: (§2)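 NCI-60 protocol: single 10 μM dose against each cell line, run in triplicate. Percent growth (G%) of treated cells measured and growth inhibition reported as GI% = 100 − G%; panel mean also given.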
# NCI-H226 = assay: NCI 60 antitumor screening (single dose); settings: Homo sapiens; NCI-H226 (non-small cell lung cancer), single dose 10 μM; read-out: Growth inhibition percentage (GI %)
# Procedure, shortened: as §2
# SF-268 = assay: NCI 60 antitumor screening (single dose); settings: Homo sapiens; SF-268 (CNS cancer), single dose 10 μM; read-out: Growth inhibition percentage (GI %)
# Procedure, shortened: as §1
# M14 = assay: NCI 60 antitumor screening (single dose); settings: Homo sapiens
# Procedure, shortened: as §2
# SK-OV-3 = assay: NCI 60 antitumor screening (single dose); settings: Homo sapiens
# Procedure, shortened: as §1
# OVCAR-4 = assay: NCI 60 antitumor screening (single dose); settings: Homo sapiens
# Procedure, shortened: as §2
# SNB-19 = assay: NCI 60 antitumor screening (single dose); settings: Homo sapiens; SNB-19 (CNS cancer), single dose 10 μM; read-out: Growth inhibition percentage (GI %)
# Procedure, shortened: as §2
# U251 = assay: NCI 60 antitumor screening (single dose); settings: Homo sapiens, U-251; U251 (CNS cancer), single dose 10 μM; read-out: Growth inhibition percentage (GI %)
# Procedure, shortened: as §1
# A549/ATCC = assay: NCI 60 antitumor screening (single dose); settings: Homo sapiens; A549/ATCC (non-small cell lung cancer), single dose 10 μM; read-out: Growth inhibition percentage (GI %)
# Procedure, shortened: as §2
# OVCAR-5 = assay: NCI 60 antitumor screening (single dose); settings: Homo sapiens
# Procedure, shortened: as §1
# MCF7 = assay: NCI 60 antitumor screening (single dose); settings: Homo sapiens
# Procedure, shortened: as §2
# NCI-H522 = assay: NCI 60 antitumor screening (single dose); settings: Homo sapiens; NCI-H522 (non-small cell lung cancer), single dose 10 μM; read-out: Growth inhibition percentage (GI %)
# Procedure, shortened: as §1
# KM 12 = assay: NCI 60 antitumor screening (single dose); settings: Homo sapiens, KM12; KM 12 (colon cancer), single dose 10 μM; read-out: Growth inhibition percentage (GI %)
# Procedure, shortened: as §2
# CAKI-1 = assay: NCI 60 antitumor screening (single dose); settings: Homo sapiens
# Procedure, shortened: as §2
# NCI-H322M = assay: NCI 60 antitumor screening (single dose); settings: Homo sapiens; NCI-H322M (non-small cell lung cancer), single dose 10 μM; read-out: Growth inhibition percentage (GI %)
# Procedure, shortened: as §2
# NCI-H23 = assay: NCI 60 antitumor screening (single dose); settings: Homo sapiens; NCI-H23 (non-small cell lung cancer), single dose 10 μM; read-out: Growth inhibition percentage (GI %)
# Procedure, shortened: as §1
# HS 578T = assay: NCI 60 antitumor screening (single dose); settings: Homo sapiens, read-out: Growth inhibition percentage (GI %)
# Procedure, shortened: as §2
# HCT-116 = assay: NCI 60 antitumor screening (single dose / five doses); settings: Homo sapiens
# MALME-3M = assay: as above; settings: Homo sapiens; for inhibition at 10 µM: read-out: Growth inhibition percentage (GI %)
# SF-539 = assay: as above; settings: Homo sapiens
# [2] = SK-MEL-28 (melanoma), single dose 10 μM, read-out: Growth inhibition percentage (GI %)
# [3] = T-47D (breast cancer), single dose 10 μM
# [4] = SR (leukaemia), single dose 10 μM
# [5] = MDA-MB-435 (melanoma), single dose 10 μM, read-out: Growth inhibition percentage (GI %)
# [6] = SK-MEL-2 (melanoma), single dose 10 μM, read-out: Growth inhibition percentage (GI %)
# [7] = DU-145 (prostate cancer), single dose 10 μM, read-out: Growth inhibition percentage (GI %)
# [8] = OVCAR-3 (ovarian cancer), single dose 10 μM, read-out: Growth inhibition percentage (GI %)
# [9] = M14 (melanoma), single dose 10 μM, read-out: Growth inhibition percentage (GI %)
# [10] = SK-OV-3 (ovarian cancer), single dose 10 μM, read-out: Growth inhibition percentage (GI %)
# [11] = OVCAR-4 (ovarian cancer), single dose 10 μM, read-out: Growth inhibition percentage (GI %)
# [12] = OVCAR-5 (ovarian cancer), single dose 10 μM, read-out: Growth inhibition percentage (GI %)
# [13] = MCF7 (breast cancer), single dose 10 μM, read-out: Growth inhibition percentage (GI %)
# [14] = CAKI-1 (renal cancer), single dose 10 μM, read-out: Growth inhibition percentage (GI %)
# [15] = HS 578T (breast cancer), single dose 10 μM
# [16] = HCT-116 (colon cancer), single dose 10 μM, read-out: Growth inhibition percentage (GI %)
# [17] = MALME-3M (melanoma), single dose 10 μM
# [18] = SF-539 (CNS cancer), single dose 10 μM, read-out: Growth inhibition percentage (GI %)
# [19] = SK-MEL-28, read-out: Growth inhibition percentage (GI %)
# [20] = MDA-MB-435, read-out: Growth inhibition percentage (GI %)
# [21] = SK-MEL-2, read-out: Growth inhibition percentage (GI %)
# [22] = DU-145, read-out: Growth inhibition percentage (GI %)
# [23] = HCT-116, read-out: Growth inhibition percentage (GI %)
# [24] = SF-539, read-out: Growth inhibition percentage (GI %)
SMILES,inhibition at 10 µM (SK-MEL-28; [2]),inhibition at 10 µM (T-47D; [3]),Mean GI % [1],inhibition at 10 µM (OVCAR-3; [8]),inhibition at 10 µM (NCI-H226),inhibition at 10 µM (SF-268),inhibition at 10 µM (M14; [9]),inhibition at 10 µM (SK-OV-3; [10]),inhibition at 10 µM (OVCAR-4; [11]),inhibition at 10 µM (SNB-19),inhibition at 10 µM (U251),inhibition at 10 µM (A549/ATCC),inhibition at 10 µM (OVCAR-5; [12]),inhibition at 10 µM (MCF7; [13]),inhibition at 10 µM (NCI-H522),inhibition at 10 µM (KM 12),inhibition at 10 µM (CAKI-1; [14]),inhibition at 10 µM (NCI-H322M),inhibition at 10 µM (NCI-H23),inhibition at 10 µM (HS 578T; [15]),also measured
"Oc1ccc(/C=N/Nc2nc(N/N=C/c3ccc(O)c(O)c3)nc(N3CCOCC3)n2)cc1O [compound 6j, 4-[(1e)-(2-{4-[(E)-2-[(3,4-Dihydroxyphenyl)methylidene]hydrazin-1-yl]-6-(morpholin-4-yl)-1,3,5-triazin-2-yl}hydrazin-1-ylidene)methyl]benzene-1,2-diol]",-2.58%,7.67%,-2.12%,-4.79%,1.59%,-2.53%,-4.69%,-7.04%,-1.23%,-4.37%,-3.1%,1.02%,-3.8%,5.79%,3.1%,-1.91%,0.69%,9.4%,0.57%,-5.42%,inhibition at 10 µM (SR; [4]): 8.3%; inhibition at 10 µM (MDA-MB-435; [5]): -3.12%; inhibition at 10 µM (SK-MEL-2; [6]): 3.04%; inhibition at 10 µM (DU-145; [7]): -5.37%; inhibition at 10 µM (HCT-116; [16]): -6.01%; inhibition at 10 µM (MALME-3M; [17]): -4.04%; inhibition at 10 µM (SF-539; [18]): -3.18%
"O=[N+]([O-])c1cccc(/C=N/Nc2nc(N/N=C/c3cccc([N+](=O)[O-])c3)nc(N3CCOCC3)n2)c1 [compound 6f, 2-(Morpholin-4-yl)-4,6-bis[(E)-2-[(3-nitrophenyl)methylidene]hydrazin-1-yl]-1,3,5-triazine]",–,–,23.39%,–,26.4%,6.36%,–,–,–,4.49%,17.2%,28.6%,–,–,34.8%,15%,–,5.64%,27.6%,–,"inhibition at 10 µM (SK-MEL-28; [19]): 17.9%; inhibition at 10 µM (T-47D): 30.9%; inhibition at 10 µM (SR; SR): 66%; inhibition at 10 µM (MDA-MB-435; [20]): 9.84%; inhibition at 10 µM (SK-MEL-2; [21]): 4.93%; inhibition at 10 µM (DU-145; [22]): 31.1%; inhibition at 10 µM (OVCAR-3; OVCAR-3, read-out: Growth inhibition percentage (GI %)): 19%; inhibition at 10 µM (M14; M14, read-out: Growth inhibition percentage (GI %)): 14%; inhibition at 10 µM (SK-OV-3; SK-OV-3, read-out: Growth inhibition percentage (GI %)): -29%; inhibition at 10 µM (OVCAR-4; OVCAR-4, read-out: Growth inhibition percentage (GI %)): 18.4%; inhibition at 10 µM (OVCAR-5; OVCAR-5, read-out: Growth inhibition percentage (GI %)): -17%; inhibition at 10 µM (MCF7; MCF7, read-out: Growth inhibition percentage (GI %)): 34.7%; inhibition at 10 µM (CAKI-1; CAKI-1, read-out: Growth inhibition percentage (GI %)): 29.5%; inhibition at 10 µM (HS 578T; Hs-578T): 16.7%; inhibition at 10 µM (HCT-116; [23]): 35.6%; inhibition at 10 µM (MALME-3M; Malme-3M): 6.12%; inhibition at 10 µM (SF-539; [24]): 6.2%"
"O=[N+]([O-])c1cc(/C=N/Nc2nc(N/N=C/c3ccc(Cl)c([N+](=O)[O-])c3)nc(N3CCCCC3)n2)ccc1Cl [compound 7i, 2,4-Bis[(E)-2-[(4-Chloro-3-nitrophenyl)methylidene]hydrazin-1-yl]-6-(piperidin-1-yl)-1,3,5-triazine]",–,–,37.38%,107%,38.6%,35.1%,7.7%,1.24%,13.1%,27.4%,81.5%,-11.2%,-8.09%,99.1%,48.1%,94.5%,27.6%,28.8%,18.2%,46.2%,inhibition at 10 µM (SK-MEL-28; [19]): 22.2%; inhibition at 10 µM (T-47D): 51.8%; inhibition at 10 µM (SR; SR): 36.8%; inhibition at 10 µM (MDA-MB-435; [20]): 19.3%; inhibition at 10 µM (SK-MEL-2; [21]): 37.8%; inhibition at 10 µM (DU-145; [22]): 70.4%; inhibition at 10 µM (HCT-116; [23]): 78%; inhibition at 10 µM (MALME-3M; Malme-3M): -1.47%; inhibition at 10 µM (SF-539; [24]): 63.7%
"Clc1cccc(/C=N/Nc2nc(N/N=C/c3cccc(Cl)c3)nc(N3CCOCC3)n2)c1 [compound 6d, 2,4-Bis[(E)-2-[(3-chlorophenyl)methylidene]hydrazin-1-yl]-6-(morpholin-4-yl)-1,3,5-triazine]",70.2%,31.5%,53.70% and 53.69%,43.7%,39.6%,34.1%,64.8%,-29.6%,33.6%,12.1%,39.6%,53.4%,4.53%,57%,86.1%,69.8%,62.4%,46.2%,29.4%,32.5%,"GI50 (SK-MEL-28; SK-MEL-28, five doses (0.01–100 μM), read-out: GI50): 2860 nM; GI50 (T-47D; T-47D, five doses (0.01–100 μM), read-out: GI50): 3.54 µM; inhibition at 10 µM (SR; [4]): 92.3%; GI50 (SR; SR, five doses (0.01–100 μM), read-out: GI50): 320 nM; inhibition at 10 µM (MDA-MB-435; [5]): 50.7%; GI50 (MDA-MB-435; MDA-MB-435, five doses (0.01–100 μM), read-out: GI50): 4.24 µM; inhibition at 10 µM (SK-MEL-2; [6]): 102%; GI50 (SK-MEL-2; SK-MEL-2, five doses (0.01–100 μM)): 2180 nM; inhibition at 10 µM (DU-145; [7]): 57.5%; GI50 (DU-145; DU-145, five doses (0.01–100 μM), read-out: GI50): 2620 nM; inhibition at 10 µM (HCT-116; [16]): 77.2%; GI50 (HCT-116; HCT-116, five doses (0.01–100 μM), read-out: GI50): 1270 nM; inhibition at 10 µM (MALME-3M; [17]): 144%; GI50 (MALME-3M; MALME-3M, five doses (0.01–100 μM), read-out: GI50): 2860 nM; inhibition at 10 µM (SF-539; [18]): 56.4%; GI50 (SF-539; SF-539, five doses (0.01–100 μM), read-out: GI50): 5.39 µM"

# Source: article PMC9848300, “Discovery of novel enasidenib analogues targeting inhibition of mutant isocitrate dehydrogenase 2 as antileukaemic agents” (Journal of Enzyme Inhibition and Medicinal Chemistry, 2023)
